Measurements from patent publication US6596878B2, “Methods and compositions for inhibiting cell proliferative disorders” (Yissum Research & Development Company of the Hebrew …, priority 1994, dated 2003).

test system: NIH3T3 cells; test: 3T3 growth assay, NIH3T3C7 control cells; type: cell-based; settings: Mus musculus, NIH3T3, 96 h, Table VI, 10% CS, 4 days
Source text: This example illustrates the ability of the exemplary compounds to inhibit receptor tyrosine kinases, such as HER2 and/or EGFR. The following target cells were used for cellular kinaseassays: NIH3T3 clone C7 (Honegger et al., supra) engineered to over-express human EGF receptor; NIH3T3 cells engineered to over-express a chimeric receptor containing the EGFR extracellular domain and the HER2 intracellular kinase domain; the human mammary carcinoma line BT474 (ATCC HTB2) expressing HER2; and the human glioblastoma line U1242 that expresses PDGFR-β. Growth assays were carried out using human mammary epithelial SKBR3 (ATCC HTB30) cells, SKOV3 (ATCC HTB77) human ovarian cancer cell line, A431 cells, MCF7 human breast carcinoma cells, MCF7 cells overexpress the HER2 kinase (MCF7-HER2), NIH3T3 cells, and NIH3T3 cells overexpressing the HER2 kinase (3T3-HER2).
The 3T3 growth assay was carried out as follows:
(1) Dulbecco's Modified Eagle Medium (D-MEM), Gibco 11965-050;
(4) Fetal Bovine Serum Certified, Gibco 16000-028;
(5) Dulbecco's Phosphate-Buffered Saline (D-PBS), Gibco 14190-029;
(6) Sulforhodamine B (SRB), Sigma S-9012. 0.4% SRB in 1% acetic acid;
(7) 10 mM Tris-base, Fisher BP152-5;
(8) 10% TCA, Trichloroacetic acid, Fisher A322-500;
(9) 96-well flat bottom plate (sterile), Corning 08-757-155;
(10) 100 ml reagent reservoir 9 (sterile), Matrix Technologies Corporation, 8086;
(11) Sterile pipet tips, Fisher 21-197-8E;
NIH3T3C7 cells in 10% CS+2 mM GLN DMEM HER2C7 cells in 2% FBS+2 mM GLN DMEM
(1) HER2C7 (engineered to express HER2) and NIH3T3C7 (as the control) cells are used for this assay. NIH3T3C7 cells are seeded at 2500 cells/well, […] in 10% CS+2 mM GLN DMEM, in a 96 well plate; HER2C7 cells are seeded at 6000 cells/well, 100 μl/well in 2% FBS+2 mM GLN DMEM, in a 96 well plate. Cells are incubated at 37° C., 5% CO2 overnight to allow for cell attachment to the plate;
(2) The test compound is added to the cells at day 2. The compounds are prepared in the appropriate growth medium (10% CS+2 mM) GLN DMEM for NIH3T3C7 cells; 2% FBS+2 mM GLN DMEM for HER2C7 cells) in a 96 well plate, and serially diluted. A total of 100 μl/well medium of the diluted compounds is added into the cells. The total volume of each well is 200 μl. Quadruplicates (wells) and 11 concentration points are applied to each compound tested.
(3) After the cells are treated with the compound for 4 days, the cells are washed with PBS and fixed with 200 μl/well ice-cold 10% TCA for one hour at 0-5° C. condition.
(4) Remove TCA and rinse wells 5 times with deionized water. Dry plates upside down with paper towels. Stain cells with 0.4% SRB at 100 μl/well for 10 minutes.
(5) Pour off SRB and rinse plate 5 times with 1% acetic acid. Dry plate completely.
(6) Solubilize the dye with 10 mM Tris-base at 100 μl/well for 10 minutes on a shaker.
(7) Read the plate at dual wavelengths at 570 nm and 630 nm on Dynatech Elisa plate reader.

Structure (SMILES)	IC50
CC(C)c1cc(/C=C(\C#N)S(=O)(=O)c2ccccc2)cc(C(C)C)c1O [Compound M30]	70 µM
CC(C)c1cc(/C=C(\C#N)S(=O)(=O)/C(C#N)=C/c2cc(C(C)C)c(O)c(C(C)C)c2)cc(C(C)C)c1O [Compound M29]	> 100 µM
CC(C)(C)c1cc(/C=C(\C#N)S(=O)(=O)c2ccccn2)cc(C(C)(C)C)c1O [Compound M34, (E)-3-(3,5-di-t-Butyl-4-hydroxyphenyl)-2-[(pyrid-2-yl)sulfonyl]acrylonitrile]	40 µM
CC(C)(C)c1cc(/C=C(\C#N)C(=O)NCCCc2ccccc2)cc(C(C)(C)C)c1O [Compound M20, (E)-3-(3,5-di-t-Butyl-4-hydroxyphenyl)-2-[(3-phenyl-n-propyl)aminocarbonyl]acrylonitrile]	90 µM
CC(C)(C)c1cc(/C=C(\C#N)C(=O)Nc2ccc(C(F)(F)F)cc2)cc(C(C)(C)C)c1O [Compound M35, (E)-3-(3,5-di-t-Butyl-4-hydroxyphenyl)-2-[(4-trifluoromethyl)phenylaminocarbonyl]acrylonitrile]	18 µM
CC(C)c1cc(/C=C(\C#N)C(=O)NCCCc2ccccc2)cc(C(C)C)c1O [Compound M21, (E)-3-(3,5-Diisopropyl-4-hydroxyphenyl)-2-[(3-phenyl-n-propyl)aminocarbonyl]acrylonitrile]	> 100 µM
CC(C)(C)c1cc(/C=C(\C#N)C(N)=S)cc(C(C)(C)C)c1O [Compound M11]	75 µM
CC(C)c1cc(/C=C(\C#N)S(=O)(=O)CC#N)cc(C(C)C)c1O [Compound M27]	> 100 µM
Cc1cc(/C=C(\C#N)S(=O)(=O)c2ccccn2)cc(C)c1O [Compound M32]	> 100 µM
CC(C)c1cc(/C=C(\C#N)S(=O)(=O)c2ccccn2)cc(C(C)C)c1O [Compound M26]	> 100 µM
CC(C)(C)c1cc(/C=C(\C#N)S(=O)(=O)c2ccccc2)cc(C(C)(C)C)c1O [Compound M33, (E)-3-(3,5-di-t-Butyl-4-hydroxyphenyl)-2-(phenylsulfonyl)acrylonitrile]	35 µM
Cc1cc(/C=C(\C#N)S(=O)(=O)c2ccccc2)cc(C)c1O [Compound M31]	> 100 µM
